Consider three substances from patent US20050089509A1 (priority 2003, published 2005).

Values joined by “and” are separate entries in the source; they are usually repeats but may differ in a detail not shown here. Equal values may be shown once. Read-outs that look alike come from different tables or passages of the source.

The test system of data set [1] is F. novicida. The format is cell-based, F. tularensis subsp. novicida.
A further data set concerns J774 cells. The format is cell-based, murine.
For data set [2] the following is noted: cited from earlier work.
Data set [3] concerns F. novicida. Set-up: species or system F. tularensis subsp. novicida. Conditions: in vivo.
The subject of data set [4] is F. novicida. Set-up: species or system F. tularensis subsp. novicida. Conditions: in vivo. This is another data set of the same source.
For data set [5] the following is noted: mouse, in vivo.
Data set [6] has as its system F. novicida. Set-up: species or system F. tularensis subsp. novicida. Conditions: in vivo. The source holds these as a separate data set.

IFN-γ: the “intracellular bacterial replication in macrophages” value in the data set with F. novicida [1] is given as “markedly inhibited replication of bacteria”. In addition, in the data set on J774 cells, the TNF-α increase is 9 fold and 18 fold.
As to IL-12, the half-life in vivo result in data set [2] is reported as “longer sustainable half-life than IFN-γ”. Also, in data set [2] (in vivo), the toxicity result is “very little toxicity”. The time to death entry in the data set on F. novicida [3] is recorded as “significantly increased the time to death”. Also, the “intracellular bacterial replication in macrophages” value in the data set on F. novicida [1] was “did not inhibit bacterial replication”. For the same substance, the “TNF-α detected (in words)” value in the data set with J774 cells was “very little TNF-α”. Also, in the data set with F. novicida [4], the “bacteria in the liver and spleen” value is given as “marked reduction of bacteria”; the “bacteria recovered from the spleens” value was “no bacteria recovered”. Also, in data set [5], the toxicity entry is on record as “no toxicity observed”. For the same substance, the “efficacy of route of delivery” value in data set [5] (ip) was “most efficacious”. In addition, in the data set with F. novicida [6], the “animals succumbed to the infection by day” value is at most 6 days.
For gentamicin, in the data set on F. novicida [6], the survival is listed as 17% and the “survival / control of the disease (in words)” value is given as “ineffective in controlling the disease”.
